For assay [1], the target named is High affinity cGMP-specific 3',5'-cyclic phosphodiesterase 9A (Homo sapiens, UniProt O76083). The experiment in a line: Inhibition of PDE9A (unknown origin).
The nature of assay [2]: Inhibition of HSP90 (unknown origin) by fluorescence polarization assay. Details: species or system Homo sapiens.
Assay [3] concerns the target T1, Histone deacetylase 3 (Homo sapiens, UniProt O15379). The experiment in a line: Inhibition of HDAC3 (unknown origin).
Assay [4] concerns the target Phosphatidylinositol 4,5-bisphosphate 3-kinase catalytic subunit beta isoform (Homo sapiens, UniProt P42338). In words: Inhibition of PI3Kbeta (unknown origin).
A further assay deals with T2, Histone deacetylase 8 (Homo sapiens, UniProt Q9BY41).
T2 sequence (Q9BY41 whole entry): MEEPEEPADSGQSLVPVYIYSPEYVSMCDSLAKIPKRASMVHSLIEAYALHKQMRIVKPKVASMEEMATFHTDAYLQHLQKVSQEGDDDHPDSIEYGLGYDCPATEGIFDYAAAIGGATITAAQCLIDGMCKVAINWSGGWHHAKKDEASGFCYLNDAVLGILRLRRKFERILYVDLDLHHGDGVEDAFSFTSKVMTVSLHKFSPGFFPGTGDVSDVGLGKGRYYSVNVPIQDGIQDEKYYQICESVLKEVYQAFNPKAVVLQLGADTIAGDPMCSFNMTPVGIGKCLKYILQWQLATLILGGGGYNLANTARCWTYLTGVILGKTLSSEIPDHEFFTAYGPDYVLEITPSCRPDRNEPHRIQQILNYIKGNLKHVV
In words: Inhibition of HDAC8 (unknown origin).

The target in assay [5] is T3, Histone deacetylase 4 (Homo sapiens, UniProt P56524). In words: Inhibition of HDAC4 (unknown origin).
For assay [6], the target named is Phosphatidylinositol 4,5-bisphosphate 3-kinase catalytic subunit delta isoform (Homo sapiens, UniProt O00329). The experiment in a line: Inhibition of PI3Kdelta (unknown origin).
In assay [7] the target is Phosphatidylinositol 4,5-bisphosphate 3-kinase catalytic subunit gamma isoform (Homo sapiens, UniProt P48736). In words: Inhibition of PI3Kgamma (unknown origin).
The next assay has as its target Histone deacetylase 1 (Homo sapiens, UniProt Q13547). The experiment in a line: Inhibition of HDAC1 (unknown origin).
In a further assay the target is Histone deacetylase 11 (Homo sapiens, UniProt Q96DB2). In words: Inhibition of HDAC11 (unknown origin).
The next assay deals with Histone deacetylase 2 (Homo sapiens, UniProt Q92769). The experiment in a line: Inhibition of HDAC2 (unknown origin).
For assay [8], the target named is cGMP-specific 3',5'-cyclic phosphodiesterase (Homo sapiens, UniProt O76074). In words: Inhibition of PDE5A (unknown origin).
Assay [9] concerns the target T4, Protein deacetylase HDAC6 (Homo sapiens, UniProt Q9UBN7).
T4 sequence (Q9UBN7 whole entry): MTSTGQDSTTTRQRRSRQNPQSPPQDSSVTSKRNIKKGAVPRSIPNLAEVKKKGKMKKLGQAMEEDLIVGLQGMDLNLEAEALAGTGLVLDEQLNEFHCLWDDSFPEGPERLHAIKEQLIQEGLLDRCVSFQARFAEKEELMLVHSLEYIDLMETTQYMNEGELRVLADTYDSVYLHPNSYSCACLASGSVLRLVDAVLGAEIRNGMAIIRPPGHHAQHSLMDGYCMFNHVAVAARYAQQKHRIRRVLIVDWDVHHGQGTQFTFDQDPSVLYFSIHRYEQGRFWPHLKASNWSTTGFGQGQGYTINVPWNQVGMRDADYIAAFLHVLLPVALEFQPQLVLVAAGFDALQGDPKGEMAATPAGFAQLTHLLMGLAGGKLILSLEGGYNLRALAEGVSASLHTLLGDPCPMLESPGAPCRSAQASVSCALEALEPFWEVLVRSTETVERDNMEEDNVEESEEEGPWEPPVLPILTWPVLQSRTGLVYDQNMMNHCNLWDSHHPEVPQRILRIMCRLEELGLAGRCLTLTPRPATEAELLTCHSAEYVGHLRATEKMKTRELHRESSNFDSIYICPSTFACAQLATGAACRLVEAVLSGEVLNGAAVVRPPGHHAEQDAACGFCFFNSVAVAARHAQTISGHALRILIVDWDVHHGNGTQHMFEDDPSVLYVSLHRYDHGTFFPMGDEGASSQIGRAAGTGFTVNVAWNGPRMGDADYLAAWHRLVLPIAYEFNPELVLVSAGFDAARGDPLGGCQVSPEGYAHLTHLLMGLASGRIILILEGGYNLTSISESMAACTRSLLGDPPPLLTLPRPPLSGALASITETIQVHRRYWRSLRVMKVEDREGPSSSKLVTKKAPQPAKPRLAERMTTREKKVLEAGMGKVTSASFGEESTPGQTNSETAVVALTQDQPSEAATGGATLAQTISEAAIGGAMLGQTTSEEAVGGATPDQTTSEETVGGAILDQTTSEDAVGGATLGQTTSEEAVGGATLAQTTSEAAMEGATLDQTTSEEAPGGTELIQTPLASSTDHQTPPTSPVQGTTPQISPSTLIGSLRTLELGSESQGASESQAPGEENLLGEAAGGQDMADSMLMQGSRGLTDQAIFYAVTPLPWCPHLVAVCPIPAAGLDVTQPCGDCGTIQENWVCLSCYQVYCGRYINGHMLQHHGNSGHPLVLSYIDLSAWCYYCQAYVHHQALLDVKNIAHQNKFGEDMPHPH
In words: Inhibition of HDAC6 (unknown origin).

Assay [10] concerns the target Steroid 17-alpha-hydroxylase/17,20 lyase (Homo sapiens, UniProt P05093). The experiment in a line: Inhibition of CYP17A1 (unknown origin). The class given is ADME.
Assay [11] addresses T5, Histone deacetylase 5 (Homo sapiens, UniProt Q9UQL6). In words: Inhibition of human recombinant HDAC5 using fluorogenic HDAC substrate incubated for 20 mins by fluorescence based assay.
Assay [12] concerns the target T6, Histone deacetylase 7 (Homo sapiens, UniProt Q8WUI4). The experiment in a line: Inhibition of human recombinant HDAC7 using fluorogenic HDAC substrate incubated for 20 mins by fluorescence based assay.
Assay [13] has as its target T3, Histone deacetylase 4. The experiment in a line: Inhibition of human recombinant HDAC4 using fluorogenic HDAC substrate incubated for 20 mins by fluorescence based assay.
The target of assay [14] is T1, Histone deacetylase 3. In words: Inhibition of human recombinant HDAC3 using fluorogenic HDAC substrate incubated for 20 mins by fluorescence based assay.
Assay [15] deals with T4, Protein deacetylase HDAC6. In words: Inhibition of human recombinant HDAC6 using fluorogenic HDAC substrate incubated for 20 mins by fluorescence based assay.
The target of assay [16] is Serine/threonine-protein kinase B-raf (Homo sapiens, UniProt P15056). In words: Inhibition of wild type B-RAF (unknown origin).
In assay [17] the target is T5, Histone deacetylase 5. In words: Inhibition of HDAC5 (unknown origin).
For another assay, the target named is Histone deacetylase 9 (Homo sapiens, UniProt Q9UKV0). The experiment in a line: Inhibition of HDAC9 (unknown origin).
Assay [18] has as its target Glutamate [NMDA] receptor (Homo sapiens) (UniProt Q05586+Q12879+Q13224+O15399+O60391+Q14957+Q8TCU5). In words: Inhibition of NMDA receptor (unknown origin) at 10 uM relative to control. The class given is protein-complex assay.
For assay [19], the target named is Glutamate [NMDA] receptor. In words: Binding affinity to NMDA receptor (unknown origin) assessed as inhibition constant. The class given is protein-complex assay, Homo sapiens.
Assay [20] deals with T6, Histone deacetylase 7. In words: Inhibition of HDAC7 (unknown origin).
The target in assay [21] is T4, Protein deacetylase HDAC6. In words: Inhibition of HDAC6 (unknown origin) extracted from baculovirus infected Sf9 insect cells using fluorescent peptide p53 (379 to 382 residues) RHKK(Ac)AMC as substrate by fluorescence based analysis.
The target in assay [22] is ALK tyrosine kinase receptor (Homo sapiens, UniProt Q9UM73). In words: Inhibition of ALK (unknown origin) using poly[Glu:Tyr] (4:1) as substrate incubated for 2 hrs by [gamma-33P]ATP assay.
A further assay deals with A549. In words: Antitumor activity against human A549 cells xenografted in BALB/c nude mouse assessed as inhibition of tumor growth at 20 mg/kg, ip administered once daily for 21 days relative to control. Format: functional. Details: scale not given: the % may be the effect or the level left. Particulars: time 21 day. For orientation: A xenograft is tissue or cells of one species grown in another, often human tumour cells in immunodeficient mice.

For assay [23], the target named is Serine/threonine-protein kinase PAK 1 (Homo sapiens, UniProt Q13153). The experiment in a line: Inhibition of PAK1 (unknown origin).
Assay [24] addresses Serine/threonine-protein kinase PAK 2 (Homo sapiens, UniProt Q13177). The experiment in a line: Inhibition of PAK2 (unknown origin).
The target in assay [25] is Serine/threonine-protein kinase PAK 3 (Homo sapiens, UniProt O75914). In words: Inhibition of PAK3 (unknown origin).
In assay [26] the target is Estrogen receptor (Homo sapiens) (UniProt P03372). In words: Binding affinity to ERalpha (unknown origin) assessed as relative binding affinity by fluorescence polarization assay relative to control. For orientation: Fluorescence polarisation rises when a labelled molecule tumbles more slowly, as on binding a larger partner.
Assay [27] concerns the target Estrogen receptor beta (Homo sapiens) (UniProt Q92731). The experiment in a line: Binding affinity to ERbeta (unknown origin) assessed as relative binding affinity by fluorescence polarization assay relative to control.

Histone deacetylase 2, sequence (Q92769 whole entry): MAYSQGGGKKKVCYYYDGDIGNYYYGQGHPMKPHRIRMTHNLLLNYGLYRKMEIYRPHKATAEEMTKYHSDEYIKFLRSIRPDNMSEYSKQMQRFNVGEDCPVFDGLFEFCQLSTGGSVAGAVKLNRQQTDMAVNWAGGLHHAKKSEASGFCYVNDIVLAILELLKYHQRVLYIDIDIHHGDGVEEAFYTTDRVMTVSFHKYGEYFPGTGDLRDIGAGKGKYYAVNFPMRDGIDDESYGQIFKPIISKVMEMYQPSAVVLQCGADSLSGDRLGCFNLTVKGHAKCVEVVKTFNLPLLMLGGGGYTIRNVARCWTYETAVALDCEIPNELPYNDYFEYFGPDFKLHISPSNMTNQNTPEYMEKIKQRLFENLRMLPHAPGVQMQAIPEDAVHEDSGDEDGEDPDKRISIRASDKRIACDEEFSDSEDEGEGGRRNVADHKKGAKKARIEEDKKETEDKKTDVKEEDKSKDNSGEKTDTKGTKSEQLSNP
Histone deacetylase 1, sequence (Q13547 whole entry): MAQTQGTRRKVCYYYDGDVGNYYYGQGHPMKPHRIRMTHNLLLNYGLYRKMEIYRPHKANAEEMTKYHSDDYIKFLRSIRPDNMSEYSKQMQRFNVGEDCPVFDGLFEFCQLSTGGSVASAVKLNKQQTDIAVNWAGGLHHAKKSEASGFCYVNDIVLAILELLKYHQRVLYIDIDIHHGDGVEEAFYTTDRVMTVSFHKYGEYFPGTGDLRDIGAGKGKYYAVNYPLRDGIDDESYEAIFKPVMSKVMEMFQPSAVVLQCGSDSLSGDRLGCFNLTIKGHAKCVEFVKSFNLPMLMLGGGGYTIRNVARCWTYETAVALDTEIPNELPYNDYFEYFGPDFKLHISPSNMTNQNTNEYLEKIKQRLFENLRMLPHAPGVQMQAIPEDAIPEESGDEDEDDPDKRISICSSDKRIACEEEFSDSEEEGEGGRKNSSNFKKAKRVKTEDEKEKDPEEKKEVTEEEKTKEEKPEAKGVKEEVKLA
T3 sequence (P56524 whole entry, canonical isoform): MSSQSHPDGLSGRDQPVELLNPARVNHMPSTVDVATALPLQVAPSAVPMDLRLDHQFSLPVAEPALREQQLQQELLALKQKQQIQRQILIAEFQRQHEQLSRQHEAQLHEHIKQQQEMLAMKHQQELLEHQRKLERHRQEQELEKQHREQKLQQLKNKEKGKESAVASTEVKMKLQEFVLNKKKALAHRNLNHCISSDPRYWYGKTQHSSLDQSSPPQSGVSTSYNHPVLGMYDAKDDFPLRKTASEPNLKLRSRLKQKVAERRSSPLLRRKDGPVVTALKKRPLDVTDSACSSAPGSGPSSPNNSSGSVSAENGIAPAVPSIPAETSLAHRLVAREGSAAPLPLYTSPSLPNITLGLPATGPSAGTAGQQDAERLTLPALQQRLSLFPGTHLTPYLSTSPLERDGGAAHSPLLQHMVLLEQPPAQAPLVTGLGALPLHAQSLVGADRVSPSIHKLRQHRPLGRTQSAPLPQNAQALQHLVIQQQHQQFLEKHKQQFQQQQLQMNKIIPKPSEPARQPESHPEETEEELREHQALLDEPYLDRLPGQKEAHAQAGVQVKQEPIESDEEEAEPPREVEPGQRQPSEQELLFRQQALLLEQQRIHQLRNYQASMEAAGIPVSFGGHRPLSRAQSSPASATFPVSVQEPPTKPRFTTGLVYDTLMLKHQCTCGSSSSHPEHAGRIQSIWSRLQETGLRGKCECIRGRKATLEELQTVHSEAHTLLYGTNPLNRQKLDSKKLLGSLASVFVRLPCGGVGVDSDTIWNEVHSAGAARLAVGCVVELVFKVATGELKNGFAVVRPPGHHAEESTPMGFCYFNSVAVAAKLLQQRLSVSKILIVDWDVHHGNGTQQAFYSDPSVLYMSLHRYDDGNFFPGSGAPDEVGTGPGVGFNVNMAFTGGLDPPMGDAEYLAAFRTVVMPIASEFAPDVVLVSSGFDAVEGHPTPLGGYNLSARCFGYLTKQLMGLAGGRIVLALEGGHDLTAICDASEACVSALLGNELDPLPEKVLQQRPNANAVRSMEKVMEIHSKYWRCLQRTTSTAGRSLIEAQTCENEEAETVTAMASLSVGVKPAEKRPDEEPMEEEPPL
T1 sequence (O15379 whole entry, canonical isoform): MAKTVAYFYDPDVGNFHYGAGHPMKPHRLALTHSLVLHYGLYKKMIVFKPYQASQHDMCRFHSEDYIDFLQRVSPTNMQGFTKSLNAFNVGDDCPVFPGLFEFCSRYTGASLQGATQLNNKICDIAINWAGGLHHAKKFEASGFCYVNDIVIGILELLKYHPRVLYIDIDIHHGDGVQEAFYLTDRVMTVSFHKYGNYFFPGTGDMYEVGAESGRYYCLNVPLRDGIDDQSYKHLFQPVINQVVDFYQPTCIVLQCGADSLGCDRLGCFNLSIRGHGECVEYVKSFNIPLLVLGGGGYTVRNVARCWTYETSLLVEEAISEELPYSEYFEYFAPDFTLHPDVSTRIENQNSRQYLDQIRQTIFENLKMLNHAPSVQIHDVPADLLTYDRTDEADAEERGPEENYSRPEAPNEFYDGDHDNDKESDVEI
T6 sequence (Q8WUI4 whole entry): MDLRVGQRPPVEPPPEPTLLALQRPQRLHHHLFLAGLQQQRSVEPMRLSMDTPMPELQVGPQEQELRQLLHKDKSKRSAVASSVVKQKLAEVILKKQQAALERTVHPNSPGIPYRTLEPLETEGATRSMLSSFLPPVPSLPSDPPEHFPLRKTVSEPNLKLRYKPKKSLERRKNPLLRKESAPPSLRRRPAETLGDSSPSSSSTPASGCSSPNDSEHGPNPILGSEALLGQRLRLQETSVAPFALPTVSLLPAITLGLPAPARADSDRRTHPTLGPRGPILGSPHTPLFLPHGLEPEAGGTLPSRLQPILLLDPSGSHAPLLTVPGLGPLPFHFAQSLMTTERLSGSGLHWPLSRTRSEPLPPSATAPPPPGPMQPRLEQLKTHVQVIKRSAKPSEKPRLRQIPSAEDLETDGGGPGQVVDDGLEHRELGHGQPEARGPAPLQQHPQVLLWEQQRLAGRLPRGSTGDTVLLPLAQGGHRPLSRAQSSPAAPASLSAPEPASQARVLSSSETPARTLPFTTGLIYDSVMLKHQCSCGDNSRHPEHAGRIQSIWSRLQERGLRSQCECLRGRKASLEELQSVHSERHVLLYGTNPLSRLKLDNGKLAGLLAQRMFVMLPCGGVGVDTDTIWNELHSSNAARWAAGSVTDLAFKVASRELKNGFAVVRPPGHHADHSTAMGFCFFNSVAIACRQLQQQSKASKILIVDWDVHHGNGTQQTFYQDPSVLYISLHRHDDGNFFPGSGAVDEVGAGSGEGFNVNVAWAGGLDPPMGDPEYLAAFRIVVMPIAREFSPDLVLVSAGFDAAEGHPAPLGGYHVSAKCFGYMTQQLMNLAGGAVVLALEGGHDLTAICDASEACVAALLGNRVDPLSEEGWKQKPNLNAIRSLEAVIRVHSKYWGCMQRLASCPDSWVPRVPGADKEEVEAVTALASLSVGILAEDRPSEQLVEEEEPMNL
High affinity cGMP-specific 3',5'-cyclic phosphodiesterase 9A, sequence (O76083 whole entry): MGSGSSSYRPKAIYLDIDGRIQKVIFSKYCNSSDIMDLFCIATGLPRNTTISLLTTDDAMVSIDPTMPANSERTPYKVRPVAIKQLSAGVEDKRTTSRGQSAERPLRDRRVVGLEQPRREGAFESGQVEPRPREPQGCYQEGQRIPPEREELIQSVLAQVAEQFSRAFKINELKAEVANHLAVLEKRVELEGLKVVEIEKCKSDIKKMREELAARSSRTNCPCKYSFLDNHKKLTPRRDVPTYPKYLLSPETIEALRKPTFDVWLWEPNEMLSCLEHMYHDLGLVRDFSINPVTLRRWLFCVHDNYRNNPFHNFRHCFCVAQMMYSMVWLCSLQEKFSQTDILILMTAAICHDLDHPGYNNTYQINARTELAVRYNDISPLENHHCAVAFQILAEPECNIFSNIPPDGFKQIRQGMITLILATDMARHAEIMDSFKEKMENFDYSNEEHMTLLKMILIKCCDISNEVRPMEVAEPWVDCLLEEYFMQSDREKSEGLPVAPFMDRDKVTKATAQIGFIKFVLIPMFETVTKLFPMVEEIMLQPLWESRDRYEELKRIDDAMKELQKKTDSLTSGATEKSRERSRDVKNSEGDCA
Serine/threonine-protein kinase PAK 3, sequence (O75914 whole entry): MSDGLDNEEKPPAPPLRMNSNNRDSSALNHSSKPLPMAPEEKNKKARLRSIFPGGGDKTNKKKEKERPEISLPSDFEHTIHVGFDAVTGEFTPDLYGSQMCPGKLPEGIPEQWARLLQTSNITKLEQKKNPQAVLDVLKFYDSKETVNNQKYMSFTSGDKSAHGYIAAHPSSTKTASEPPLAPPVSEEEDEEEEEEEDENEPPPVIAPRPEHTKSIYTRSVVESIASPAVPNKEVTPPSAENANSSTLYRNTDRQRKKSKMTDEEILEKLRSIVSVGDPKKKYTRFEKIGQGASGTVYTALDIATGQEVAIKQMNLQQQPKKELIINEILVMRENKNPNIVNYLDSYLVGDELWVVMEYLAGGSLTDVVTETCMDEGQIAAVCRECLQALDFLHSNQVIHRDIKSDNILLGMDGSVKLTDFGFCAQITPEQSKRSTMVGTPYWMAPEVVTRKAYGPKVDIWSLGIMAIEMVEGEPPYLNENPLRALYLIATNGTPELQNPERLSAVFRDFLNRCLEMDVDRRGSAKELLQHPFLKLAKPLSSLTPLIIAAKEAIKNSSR
Histone deacetylase 11, sequence (Q96DB2 whole entry): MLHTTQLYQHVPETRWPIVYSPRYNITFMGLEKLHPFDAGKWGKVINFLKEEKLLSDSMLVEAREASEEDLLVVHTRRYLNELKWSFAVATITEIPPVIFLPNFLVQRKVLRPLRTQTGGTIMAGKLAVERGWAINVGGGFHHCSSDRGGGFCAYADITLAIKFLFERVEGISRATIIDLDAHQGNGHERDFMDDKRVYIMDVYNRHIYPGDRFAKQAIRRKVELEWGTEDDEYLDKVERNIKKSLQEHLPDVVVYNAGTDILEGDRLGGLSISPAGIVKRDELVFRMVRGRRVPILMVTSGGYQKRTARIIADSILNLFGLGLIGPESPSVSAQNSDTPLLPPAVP

The term IC50 denotes the concentration needed to halve the response being measured. Regarding `C[C@H](c1nc2c(cnn2C2CCCC2)c(=O)[nH]1)N1CC(Oc2ncccn2)C1`, in [1], the midpoint of inhibition, the IC50, lay at 32 nM.

For `CC(C)c1cc(C(=O)N(C)Cc2ccc(C(=O)NO)cc2)c(O)cc1O`, the IC50 in [2] is 61 nM.

For `CCCCN(Cc1ccc(C(=O)NO)cc1)C(=O)CCCCn1cc(COc2cccc(Cc3cnc(NC(=O)CSc4nc(C)cc(C)n4)s3)c2)nn1`, half-maximal inhibition on Histone deacetylase 3 [3] (IC50) required 2500 nM.

For the compound `O=C(NO)c1ccc(/C=N/NC(=O)c2cc(N3CCOCC3)nc(-c3cccc(O)c3)n2)cc1`, the concentration for half-maximal inhibition (IC50) in assay [4] was 72.8 nM; at Histone deacetylase 8, 67.6 nM; on Histone deacetylase 4 [5], > 3000 nM; in assay [6], 72.4 nM; in assay [7], 1300 nM; against Histone deacetylase 1, > 3000 nM. Moreover, the concentration for half-maximal inhibition (IC50) against Histone deacetylase 11 is > 3000 nM.

Consider `C[C@@H]1CN(Cc2ccc(C(=O)NO)cc2)C[C@H]1c1nc2c(cnn2C2CCOCC2)c(=O)[nH]1`, for which the IC50 at Histone deacetylase 2 is 3530 nM; in assay [8], > 10000 nM; in [1], 107 nM; in assay [9] it was 40 nM; against Histone deacetylase 1, 593 nM.

Turning to `C[C@]12CC[C@H](OC(=O)CCCCCC(=O)NO)CC1=CCC1C2CC[C@]2(C)C(c3cccnc3)=CCC12` (some centres not stated), the IC50 against Histone deacetylase 8 was > 10000 nM; in assay [9], 600 nM; in assay [10] it was 284 nM.

Turning to `CC(C)(C)c1nc(-c2cccc(NS(=O)(=O)c3c(F)cccc3F)c2F)c(-c2ccnc(NCCCCCCC(=O)NO)n2)s1`, the IC50 is > 52800 nM on Histone deacetylase 5 [11]; 3000 nM at Histone deacetylase 7 [12]; > 100000 nM at Histone deacetylase 4 [13]; 930 nM on Histone deacetylase 3 [14]; 50 nM in [15]; 4 nM in assay [16].

For orientation: inhibition means the percentage by which the read-out fell short of the control. By Ki is commonly meant the dissociation constant of the complex between target and ligand, obtained from inhibition or displacement. Regarding `CC12CC3CC(C)(C1)CC(NC(=O)/C=C/c1ccc(C(=O)NO)cc1)(C3)C2`, the IC50 was > 10000 nM against Histone deacetylase 5 [17]; > 10000 nM against Histone deacetylase 9; 620 nM against Histone deacetylase 8; 8000 nM on Histone deacetylase 2; > 10000 nM at Histone deacetylase 4 [5]; > 10000 nM at Histone deacetylase 7 [20]. Further, the values for the half-maximal inhibitory concentration (IC50) at Histone deacetylase 1 and on Histone deacetylase 3 [3] were 2670 nM and 2210 nM, respectively. In assay [18], this compound registered an inhibition of 64.4%. For the same compound, the Ki in assay [19] stood at 560 nM.

In the case of `CC(C)NC(=O)[C@H]1CC[C@@H](n2/c(=N/C(=O)c3ccccc3)[nH]c3cc(/C=C/C(=O)NO)ccc32)CC1`, the half-maximal inhibitory concentration (IC50) in assay [21] was 1030 nM; in assay [22], 16 nM. For the same compound, the Activity in the assay on A549 is listed as 80%.

As to `O=C(CCCCCn1c(=O)c(-c2ccc(Cl)cc2Cl)cc2cnc(NC3CC3)nc21)NO`, the IC50 worked out at 13.6 nM in assay [23]; 190 nM at Histone deacetylase 8; 157 nM against Histone deacetylase 2; 193 nM in assay [24]; 38.2 nM in assay [9]; 441 nM in assay [25]. Also, the figures for the IC50 at Histone deacetylase 1 and against Histone deacetylase 3 [3] were 233 nM and 177 nM, respectively.

As for `N#CC(C#N)=C1C=C(/C=C/c2ccc(O)c(NC(=O)CCCCCCC(=O)NO)c2)Oc2ccccc21`, the RBA in assay [26] amounted to 0.005%; in assay [27], 0.25%.

Source of the values: ChEMBL document CHEMBL5614372, “Advances in dual-targeting inhibitors of HDAC6 for cancer treatment” (Eur J Med Chem, 2024).
